{"source": "patent US20260242440A1", "about": "“NOVEL MEANS TO MODULATE NMDA RECEPTOR-MEDIATED TOXICITY” (FUNDAMENTAL PHARMA GMBH, priority 2018, published 2026)", "tested_on": "primary mouse hippocampal neurons", "assay": "NMDA induced cell death (excitotoxicity) in cultured primary neurons", "type": "cell-based", "details": "polypeptide expressed via rAAV infection on DIV3; NMDA 20 μM for 10 min; cell death assessed 24 h later", "data": [{"substance": "SEQ ID NO:5: polypeptide, amino acid residues 633-689 of mouse TRPM4 (NSEERAARLLLRRCPLWGEATCLQLAMQADARAFFAQDGVQSLLTQKWWGEMDSTTP; listed as Mus musculus)", "values": [{"measurement": "protection against NMDA induced cell death (neuroprotective effect)", "value": "neuroprotective"}]}]}
